What all share (type): cell-based, human
The test system of assay [1] is MCF-7/Adr. The assay is described as follows: MTT drug resistance determination to conventional chemotherapeutic drugs. The note with it: for IC50: MCF-7/Adr, drug alone, 68 h, MTT; for RF (drug resistant factor): IC50 MCF-7/Adr / IC50 MCF-7. From the text:
(§1) The following cell lines were used: K562 (human chronic myeloid leukemia cell line) and K562/Adr (a cell line with drug-resistance to chemotherapeutic drugs such as Adriamycin induced by a long-term exposure to a low dosage of Adriamycin); KB (human oral epithelia cell line) and KBv200 (a cell line with drug-resistance to chemotherapeutic drugs such as Vincristine induced by a long-term exposure to a low dosage of Vincristine); MCF-7 (human mammary cancer cell line) and MCF-7/Adr (a cell line with drug-resistance to chemotherapeutic drugs such as Adriamycin induced by a long-term exposure to a low dosage of Adriamycin). All the cell lines mentioned above were purchased from Institute of Hematology, Chinese Academy of Medical Sciences.
Similarly, the multi-drug resistant cell line of MCF-7/Adr is also mainly characterized by the concurrency of multiple resistant mechanisms including the increased expression of P-gp and Bcl-2 family proteins, and the enhanced activity of glyoxalase I, etc.
(§2) Half-inhibitory concentration (IC50) was calculated by the GraphPad Prism software (San Diego, Calif.). Drug reaction was analyzed by Sigmoldal non-linear regression model.
(§3) The cells at logarithmic phase were collected and added into RPMI 1640 medium (containing 10% fetal bovine serum) to prepare a cell suspension. Then the cell suspension was plated onto a 96-well plate at 100 μl per well (1×10^4 cell/well). Adriamycin, Vincristine, Taxol, cisplatin of different concentration gradients were directly added to the semi-suspending cells (K562 and K562/Adr). The adherent cells were cultured for 24 hours after inoculation so that they could adhere completely, and then the drugs mentioned above in different concentrations were added. There were six parallel repeated wells for every concentration gradient. The medium was added up to a final volume of 200 μl per well. The cells were cultured at the condition of 37° C., saturated humidity, 5% CO2 for 68 hours. 50 μl MTT (2 mg/mL) per well was added. The 96-well plate was centrifuged and the supernatant was removed. Then 120 μl DMSO per well was added and vibrated by vibrator. The OD value was determined at a wavelength of 590 nm by enzyme labeling instrument after the crystal was dissolved completely.
(§4) The calculating method: IC50=drug concentration when the inhibitory rate was 50%.
(§5) Drug resistant factor (RF)=the IC50 of the drug resistant cells/the IC50 of the sensitive cells.

For assay [2], the system named is KBv200. The description is as above. As to conditions: for IC50: KBv200, drug alone, 68 h, MTT; for RF (drug resistant factor): IC50 KBv200 / IC50 KB.
Text: as §1
The multi-drug resistant cell line, of KBv200 is also mainly characterized by the concurrency of multiple resistant mechanisms including the increased expression of P-gp and Bcl-2 family proteins, and the enhanced activity of glyoxalase I, etc. KBv200 is resistant to Vincristine more than 100 folds in comparison with KB, and cross-resistant to […], Daunomycin, Mitoxantrone, Taxol, etc.
as §2, §3, §4, §5

For assay [3], the system named is K562/Adr cells. The assay is described as follows: Sensitizing effect of PA to conventional chemotherapeutic drugs (MTT). The note with it: drug alone, 68 h; for IC50: Homo sapiens, read-out: IC50 of anti-tumor drug, Ctrl (without PA). The procedure: (§6) The cells at logarithmic phase were collected and added into RPMI 1640 medium (containing 10% fetal bovine serum) to make cell suspensions. The cell suspension was added to 96-well plate at 100 μl per well, and the cell number was 2×10^3 (suspending cells) or 1×10^3 (adherent cells) per well. After inoculation, the suspending cells were adapted for half an hour on the plate and the adherent cells were cultivated to allow adhesion before the drugs were added. The control groups (Ctrl) were added with anti-tumor drugs but without PA. The drug concentration of each PA group was 10 μg/mL. The concentrations of chemotherapeutic drugs increased from 0.001 μg/mL to 20 μg/mL. There Were six parallel repeated wells for every concentration gradient. RPMI 1640 was added up to a finally volume of 200 μl per well. The cells were cultured at the condition of 37° C., saturated humidity, 5% CO2 for 68 hours. The MTT was determined and the IC50 was calculated as in example 4.
(§7) The formula of resistant factor: Resistant Factor (RF)=the IC50 without sensitizer/the IC50 with sensitizer.

In assay [4] the test system is KBv200 cells. The assay is described as above. As to conditions: KBv200, drug alone, 68 h; for IC50: Homo sapiens, read-out: IC50 of anti-tumor drug, Ctrl (without PA). Here is the method: as §6, §7
Assay [5] has as its system MCF-7/Adr cells. Described as above. As to conditions: drug alone, 68 h; for IC50: Homo sapiens, NCI/ADR-RES, read-out: IC50 of anti-tumor drug, Ctrl (without PA). Here is the method: as §6, §7
The test system of assay [6] is K562/Adr. Briefly: MTT drug resistance determination to conventional chemotherapeutic drugs. The note with it: for IC50: K562/Adr, drug alone, 68 h, MTT; for RF (drug resistant factor): IC50 K562/Adr / IC50 K562.
Text: as §1
The multi-drug resistant cell line of K562/Adr is mainly characterized by the concurrency of multiple resistant mechanisms including the increased expression of P-gp and Bcl-2 family proteins, and the enhanced activity of glyoxalase I, etc. K562/Adr is resistant to Adriamycin 20 folds more than K562, and cross-resistant to Vincristine, Daunomycin, Mitoxantrone, Taxol, etc.
as §2, §3, §4, §5

The subject of assay [7] is KB. Described as above. As to conditions: drug alone, 68 h.
Text: as §1, §2, §3, §4, §5

The test system of assay [8] is MCF-7. Described as above. The note with it: 68 h.
Text: as §1, §2, §3, §4, §5

For assay [9], the system named is K562. The description is as above. The note with it: K562, drug alone, 68 h.
Text: as §1, §2, §3, §4, §5

Setting [10] is: Homo sapiens, NCI/ADR-RES, read-out: IC50.
Setting [11] is: Homo sapiens, MCF7, MCF-7, drug alone, read-out: IC50.

In brackets after ≈: the same amount, converted by molar mass. Like-named read-outs stand apart in the source and are kept apart here.

`COc1cccc2c1C(=O)c1c(O)c3c(c(O)c1C2=O)C[C@@](O)(C(=O)CO)C[C@@H]3O[C@H]1C[C@H](N)[C@H](O)[C@H](C)O1` [Adr, doxorubicin]: the half-maximal inhibitory concentration (IC50) in assay [1] (setting [10]) amounted to 19 ± 0.67 µg/mL (≈ 34.9 µM); in assay [2] (Homo sapiens, read-out: IC50), 16.3 ± 1.03 µg/mL (≈ 30 µM); in assay [3], 7.67 ± 0.16 µg/mL; in assay [4], 4.39 ± 0.336 µg/mL; in assay [5] it was 6.32 ± 0.775 µg/mL; in assay [6] (Homo sapiens, read-out: IC50), 14.1 ± 0.35 µg/mL (≈ 25.9 µM). Moreover, the IC50 in assay [7] (Homo sapiens, read-out: IC50) was determined as 0.49 ± 0.176 µg/mL (≈ 0.902 µM); in assay [8] (setting [11]), 0.312 ± 0.143 µg/mL (≈ 0.574 µM); in assay [9] (Homo sapiens, read-out: IC50), 0.215 ± 0.152 µg/mL (≈ 0.396 µM). Moreover, the entries for the “RF (drug resistant factor)” value in [1], in [2] and in assay [6] were 59.07, 33.22 and 65.39, respectively. The “Resistance of K562/Adr relative to K562” value in assay [6] (description of cell line) was 20 folds.

As to `N.N.[Cl][Pt][Cl]` [DDP, Cisplatin], the “RF (drug resistant factor)” value in assay [1] came to 11.38; in assay [2], 14.13; in assay [6], 4.727. Further, the IC50 in assay [1] was 7.342 ± 0.764 µg/mL; in assay [2], 7.785 ± 0.6536 µg/mL; in [6] it was 1.075 ± 0.5646 µg/mL; in [7], 0.5509 ± 0.094 µg/mL; in [8] (MCF-7, drug alone), 0.6453 ± 0.1675 µg/mL; in assay [9], 0.2274 ± 0.078 µg/mL. Further, the “IC50 of anti-tumor drug, Ctrl (without PA)” value in assay [3] (in µg/mL) came out at 5.311 ± 0.4429; in assay [4] (in µg/mL), 5.868 ± 0.2438; in assay [5] (in µg/mL), 7.708 ± 1.077.

With `CC(=O)O[C@H]1C(=O)[C@@]2(C)[C@H]([C@H](OC(=O)c3ccccc3)[C@]3(O)C[C@H](OC(=O)[C@H](O)[C@@H](NC(=O)c4ccccc4)c4ccccc4)C(C)=C1C3(C)C)[C@]1(OC(C)=O)CO[C@@H]1C[C@@H]2O` [Taxol, paclitaxel], the IC50 came out at 0.743 ± 0.21 µg/mL (≈ 0.87 µM) in [1] (setting [10]); 1.348 ± 0.002 µg/mL (≈ 1.58 µM) in assay [2] (Homo sapiens, read-out: IC50); 0.8225 ± 0.0073 µg/mL in assay [3]; 1.01 ± 0.0421 µg/mL in assay [4]; 0.906 ± 0.213 µg/mL in assay [5]; 0.932 ± 0.092 µg/mL (≈ 1.09 µM) in assay [6] (Homo sapiens, read-out: IC50). The concentration for half-maximal inhibition (IC50) in assay [7] (Homo sapiens, read-out: IC50) worked out at 0.032 ± 0.001 µg/mL (≈ 0.0375 µM); in assay [8] (setting [11]), 0.0415 ± 0.003 µg/mL (≈ 0.0486 µM); in [9] (Homo sapiens, read-out: IC50), 0.0247 ± 0.001 µg/mL (≈ 0.0289 µM). Moreover, the “RF (drug resistant factor)” value in [1] turned out to be 17.65; in assay [2], 42.12; in assay [6], 37.72.

As to `CC[C@]1(O)C[C@H]2CN(CCc3c([nH]c4ccccc34)[C@@](C(=O)OC)(c3cc4c(cc3OC)N(C=O)[C@H]3[C@@](O)(C(=O)OC)[C@H](OC(C)=O)[C@]5(CC)C=CCN6CC[C@]43[C@@H]65)C2)C1` [VCR, Vincristine], the IC50 turned out to be 18.6 ± 1.75 µg/mL (≈ 22.5 µM) in assay [1] (setting [10]); 21.3 ± 1.21 µg/mL (≈ 25.9 µM) in assay [2] (Homo sapiens, read-out: IC50); 12.1 ± 0.349 µg/mL in [3]; 10.7 ± 0.992 µg/mL in assay [4]; 14.1 ± 1.95 µg/mL in [5]; 12.2 ± 0.576 µg/mL (≈ 14.7 µM) in [6] (Homo sapiens, read-out: IC50). For the same molecule, the IC50 worked out at 0.153 ± 0.092 µg/mL (≈ 0.185 µM) in assay [7] (Homo sapiens, read-out: IC50); 0.096 ± 0.014 µg/mL (≈ 0.116 µM) in [8] (setting [11]); 0.218 ± 0.011 µg/mL (≈ 0.264 µM) in assay [9] (Homo sapiens, read-out: IC50). In addition, the “RF (drug resistant factor)” value was found to be 193.75 in [1], 139.5 in assay [2] and 55.73 in assay [6].

What is called IC50 is the concentration at which inhibition is half-maximal.

The record behind these values is patent US8445532B2, “Use of phthalide derivatives” (priority 2005, dated 2013).
